This note sets out measurements from ChEMBL document CHEMBL1154644 (J Med Chem, 2009).

Data set [1] deals with T1, Serine/threonine-protein kinase mTOR (Homo sapiens, UniProt P42345). The data set is described as follows: Inhibition of human mTOR by DELFIA assay. Type of data set: single protein.
The nature of data set [2]: Selectivity for human mTOR over PI3Kalpha.
Data set [3] concerns the target Phosphatidylinositol 4,5-bisphosphate 3-kinase catalytic subunit alpha isoform (Homo sapiens, UniProt P42336). The data set is described as follows: Inhibition of PI3Kalpha by fluorescence polarization assay. A general note: Fluorescence polarisation rises when a labelled molecule tumbles more slowly, as on binding a larger partner.
Data set [4] concerns the target T1, Serine/threonine-protein kinase mTOR. The data set is described as follows: Inhibition of mTOR-mediated signaling in human A498 cells assessed as inhibition of phosphorylation of S6K1(T389) measured after 6 hrs by immunoblotting. Type of data set: cell-based. On the technique in general: A western blot detects proteins with antibodies after separation by electrophoresis.

Data set [5] has the same target. The data set is described as follows: Inhibition of mTOR-mediated signaling in human A498 cells assessed as inhibition of phosphorylation of 4EBP1 (T70) measured after 6 hrs by immunoblotting. It counts as cell-based.
For data set [6] the target is unchanged. The data set is described as follows: Inhibition of mTOR-mediated signaling in human A498 cells assessed as inhibition of phosphorylation of 4EBP1 (T37/46) measured after 6 hrs by immunoblotting. It counts as cell-based.
Data set [7] shares this target. Nature of the data set: Inhibition of mTOR-mediated signaling in human A498 cells assessed as inhibition of phosphorylation of AKT (S473) measured after 6 hrs by immunoblotting.
The target is the same in data set [8]. The data set is described as follows: Inhibition of mTOR-mediated signaling in human A498 cells assessed as inhibition of mTORC2 biomarker measured after 6 hrs by immunoblotting. Type of data set: cell-based.
The target is the same in data set [9]. Nature of the data set: Inhibition of mTOR-mediated signaling in PTEN-negative, PI3K/AKT-hyperactive human U87MG cells assessed as inhibition of phosphorylation of S6K1(T389) measured after 6 hrs by immunoblotting. It counts as cell-based. The following applies: U-87MG ATCC.
Data set [10] shares this target. The data set is described as follows: Inhibition of mTOR-mediated signaling in PTEN-negative, PI3K/AKT-hyperactive human U87MG cells assessed as inhibition of phosphorylation of AKT(S473) measured after 6 hrs by immunoblotting. The following applies: U-87MG ATCC. Type of data set: cell-based.
The target is the same in data set [11]. Nature of the data set: Inhibition of mTOR-mediated signaling in PTEN-negative, PI3K/AKT-hyperactive human U87MG cells assessed as inhibition of phosphorylation of AKT(T308) measured after 6 hrs by immunoblotting. It counts as cell-based. The following applies: U-87MG ATCC.
Data set [12] has the same target. The data set is described as follows: Inhibition of mTOR-mediated signaling in PTEN-negative, PI3K/AKT-hyperactive human U87MG cells assessed as inhibition of PI3K/PDK1 measured after 6 hrs by immunoblotting. It counts as cell-based. The following applies: U-87MG ATCC.
Data set [13] concerns the target Dual specificity protein kinase CLK1 (Homo sapiens) (UniProt P49759). Nature of the data set: Inhibition of CLK1 at 2 uM.
Data set [14] has as its target Serine/threonine-protein kinase 25 (Homo sapiens) (UniProt O00506). Nature of the data set: Inhibition of STK25 at 2 uM.
Data set [15] deals with Tyrosine-protein kinase JAK2 (Homo sapiens) (UniProt O60674). The data set is described as follows: Inhibition of JAK2 at 2 uM.
Data set [16] in a line: Inhibition of AMPK at 2 uM.
Data set [17] has as its target Serine/threonine-protein kinase PAK 2 (Homo sapiens) (UniProt Q13177). The data set is described as follows: Inhibition of PAK2 at 2 uM.
Data set [18] concerns the target Tyrosine-protein kinase CSK (Homo sapiens) (UniProt P41240). Nature of the data set: Inhibition of CSK at 2 uM.
Data set [19] deals with Fibroblast growth factor receptor 1 (Homo sapiens) (UniProt P11362). The data set is described as follows: Inhibition of FGFR1 at 2 uM.
Data set [20] deals with Serine/threonine-protein kinase 26 (Homo sapiens) (UniProt Q9P289). The data set is described as follows: Inhibition of MST4 at 2 uM.
Data set [21] deals with Angiopoietin-1 receptor (Homo sapiens) (UniProt Q02763). The data set is described as follows: Inhibition of TEK at 2 uM.
Data set [22] has as its target BDNF/NT-3 growth factors receptor (Homo sapiens) (UniProt Q16620). Nature of the data set: Inhibition of NTRK2 at 2 uM.
Data set [23] addresses Serine/threonine-protein kinase PAK 5 (Homo sapiens) (UniProt Q9P286). Nature of the data set: Inhibition of PAK7 at 2 uM.
Data set [24] concerns the target T2, Serine/threonine-protein kinase Sgk3 (Homo sapiens) (UniProt Q96BR1).
T2 sequence (whole entry): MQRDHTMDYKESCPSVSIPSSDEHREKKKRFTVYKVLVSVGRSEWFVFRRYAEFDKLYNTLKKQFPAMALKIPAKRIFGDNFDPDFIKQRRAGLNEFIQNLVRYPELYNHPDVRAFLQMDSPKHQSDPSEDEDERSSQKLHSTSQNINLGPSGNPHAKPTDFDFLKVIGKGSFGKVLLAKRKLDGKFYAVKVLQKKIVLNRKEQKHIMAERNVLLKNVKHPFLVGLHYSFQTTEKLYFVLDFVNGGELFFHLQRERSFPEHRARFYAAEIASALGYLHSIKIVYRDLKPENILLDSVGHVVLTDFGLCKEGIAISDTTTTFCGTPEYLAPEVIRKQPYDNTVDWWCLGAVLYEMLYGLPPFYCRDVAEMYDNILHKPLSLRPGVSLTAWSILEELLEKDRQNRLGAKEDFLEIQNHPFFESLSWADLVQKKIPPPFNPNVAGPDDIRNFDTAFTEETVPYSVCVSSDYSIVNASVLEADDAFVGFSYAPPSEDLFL
The data set is described as follows: Inhibition of SGKL at 2 uM.

In data set [25] the target is T1, Serine/threonine-protein kinase mTOR. Nature of the data set: Inhibition of human mTOR assessed as ATP competitive inhibition by Lineweaver-Burke double reciprocal dose-response plot.
Data set [26] deals with Serine/threonine-protein kinase D3 (PRKD3/PKCν) (Homo sapiens) (UniProt O94806). The data set is described as follows: Inhibition of PRKCN at 2 uM.
Data set [27] can be described thus: Clearance in rat hepatocyte assessed as half life. Particulars: hepatocytes. It counts as ADME, cell-based, Liver.

Each structure is given as a SMILES string. Activity calls are given as the source filed them. The rule behind the calls is not given here.

Sequence of Phosphatidylinositol 4,5-bisphosphate 3-kinase catalytic subunit alpha isoform (P42336 whole entry, canonical isoform): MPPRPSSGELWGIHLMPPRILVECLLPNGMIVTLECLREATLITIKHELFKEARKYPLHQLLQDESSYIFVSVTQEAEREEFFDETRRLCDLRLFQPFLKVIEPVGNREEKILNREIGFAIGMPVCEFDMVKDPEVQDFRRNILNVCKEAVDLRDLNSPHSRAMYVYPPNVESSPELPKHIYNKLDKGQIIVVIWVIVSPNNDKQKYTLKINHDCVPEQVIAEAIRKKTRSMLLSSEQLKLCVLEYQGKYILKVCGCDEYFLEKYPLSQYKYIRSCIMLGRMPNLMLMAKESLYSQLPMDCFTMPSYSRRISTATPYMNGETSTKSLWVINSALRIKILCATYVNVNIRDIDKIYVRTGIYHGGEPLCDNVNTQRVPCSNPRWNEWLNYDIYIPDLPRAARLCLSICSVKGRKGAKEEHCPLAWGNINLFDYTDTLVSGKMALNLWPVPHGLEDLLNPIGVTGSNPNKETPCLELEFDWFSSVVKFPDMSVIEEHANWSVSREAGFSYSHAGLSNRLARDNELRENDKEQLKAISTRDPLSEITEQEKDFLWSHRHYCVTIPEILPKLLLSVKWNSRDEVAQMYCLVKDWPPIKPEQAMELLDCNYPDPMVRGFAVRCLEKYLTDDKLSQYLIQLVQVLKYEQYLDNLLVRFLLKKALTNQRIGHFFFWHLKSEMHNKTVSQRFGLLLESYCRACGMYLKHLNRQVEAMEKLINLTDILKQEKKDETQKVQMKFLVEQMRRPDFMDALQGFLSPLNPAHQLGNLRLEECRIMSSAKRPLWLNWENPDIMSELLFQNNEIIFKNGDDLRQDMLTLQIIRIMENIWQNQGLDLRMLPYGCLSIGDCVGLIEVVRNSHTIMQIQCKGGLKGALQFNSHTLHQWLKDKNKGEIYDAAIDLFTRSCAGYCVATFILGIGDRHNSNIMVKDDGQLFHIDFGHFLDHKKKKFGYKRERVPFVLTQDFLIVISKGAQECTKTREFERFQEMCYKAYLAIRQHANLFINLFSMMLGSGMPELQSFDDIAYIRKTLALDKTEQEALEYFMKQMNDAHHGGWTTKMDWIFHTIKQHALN
Sequence of Serine/threonine-protein kinase PAK 2 (Homo sapiens) (Q13177 whole entry): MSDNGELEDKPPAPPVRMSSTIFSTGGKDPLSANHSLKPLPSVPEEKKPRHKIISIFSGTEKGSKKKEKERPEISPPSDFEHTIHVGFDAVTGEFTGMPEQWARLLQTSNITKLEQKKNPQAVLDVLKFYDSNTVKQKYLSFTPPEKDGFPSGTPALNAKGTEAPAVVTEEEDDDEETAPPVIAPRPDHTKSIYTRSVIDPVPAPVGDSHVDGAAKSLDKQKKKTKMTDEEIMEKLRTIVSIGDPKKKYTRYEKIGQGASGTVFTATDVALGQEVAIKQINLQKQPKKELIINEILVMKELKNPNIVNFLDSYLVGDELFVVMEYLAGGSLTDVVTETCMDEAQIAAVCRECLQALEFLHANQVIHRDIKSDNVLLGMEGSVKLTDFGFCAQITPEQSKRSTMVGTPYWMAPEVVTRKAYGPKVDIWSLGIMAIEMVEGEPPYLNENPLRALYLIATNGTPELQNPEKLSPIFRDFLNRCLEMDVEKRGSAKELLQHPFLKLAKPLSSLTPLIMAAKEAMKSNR
Sequence of Serine/threonine-protein kinase PAK 5 (Homo sapiens) (Q9P286 whole entry, looked up): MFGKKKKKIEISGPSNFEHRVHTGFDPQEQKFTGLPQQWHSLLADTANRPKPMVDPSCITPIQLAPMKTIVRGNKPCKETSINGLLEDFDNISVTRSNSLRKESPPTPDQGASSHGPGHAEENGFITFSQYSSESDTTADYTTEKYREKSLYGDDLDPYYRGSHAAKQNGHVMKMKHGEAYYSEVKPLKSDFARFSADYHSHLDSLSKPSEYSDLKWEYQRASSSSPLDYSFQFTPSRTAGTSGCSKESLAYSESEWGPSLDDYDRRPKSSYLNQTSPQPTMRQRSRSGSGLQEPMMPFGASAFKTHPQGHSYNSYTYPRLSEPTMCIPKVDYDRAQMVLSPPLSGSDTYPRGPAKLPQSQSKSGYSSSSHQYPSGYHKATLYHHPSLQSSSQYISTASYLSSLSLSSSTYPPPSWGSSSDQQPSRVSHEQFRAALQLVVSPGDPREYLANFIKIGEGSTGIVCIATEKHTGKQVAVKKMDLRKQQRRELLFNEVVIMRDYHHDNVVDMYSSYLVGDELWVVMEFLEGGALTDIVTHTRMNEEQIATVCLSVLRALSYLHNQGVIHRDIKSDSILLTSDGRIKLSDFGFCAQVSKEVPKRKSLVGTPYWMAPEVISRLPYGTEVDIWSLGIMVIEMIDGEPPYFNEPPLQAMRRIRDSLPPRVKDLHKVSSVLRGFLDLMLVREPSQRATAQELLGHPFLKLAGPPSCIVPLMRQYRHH
Sequence of Tyrosine-protein kinase JAK2 (Homo sapiens) (O60674 whole entry): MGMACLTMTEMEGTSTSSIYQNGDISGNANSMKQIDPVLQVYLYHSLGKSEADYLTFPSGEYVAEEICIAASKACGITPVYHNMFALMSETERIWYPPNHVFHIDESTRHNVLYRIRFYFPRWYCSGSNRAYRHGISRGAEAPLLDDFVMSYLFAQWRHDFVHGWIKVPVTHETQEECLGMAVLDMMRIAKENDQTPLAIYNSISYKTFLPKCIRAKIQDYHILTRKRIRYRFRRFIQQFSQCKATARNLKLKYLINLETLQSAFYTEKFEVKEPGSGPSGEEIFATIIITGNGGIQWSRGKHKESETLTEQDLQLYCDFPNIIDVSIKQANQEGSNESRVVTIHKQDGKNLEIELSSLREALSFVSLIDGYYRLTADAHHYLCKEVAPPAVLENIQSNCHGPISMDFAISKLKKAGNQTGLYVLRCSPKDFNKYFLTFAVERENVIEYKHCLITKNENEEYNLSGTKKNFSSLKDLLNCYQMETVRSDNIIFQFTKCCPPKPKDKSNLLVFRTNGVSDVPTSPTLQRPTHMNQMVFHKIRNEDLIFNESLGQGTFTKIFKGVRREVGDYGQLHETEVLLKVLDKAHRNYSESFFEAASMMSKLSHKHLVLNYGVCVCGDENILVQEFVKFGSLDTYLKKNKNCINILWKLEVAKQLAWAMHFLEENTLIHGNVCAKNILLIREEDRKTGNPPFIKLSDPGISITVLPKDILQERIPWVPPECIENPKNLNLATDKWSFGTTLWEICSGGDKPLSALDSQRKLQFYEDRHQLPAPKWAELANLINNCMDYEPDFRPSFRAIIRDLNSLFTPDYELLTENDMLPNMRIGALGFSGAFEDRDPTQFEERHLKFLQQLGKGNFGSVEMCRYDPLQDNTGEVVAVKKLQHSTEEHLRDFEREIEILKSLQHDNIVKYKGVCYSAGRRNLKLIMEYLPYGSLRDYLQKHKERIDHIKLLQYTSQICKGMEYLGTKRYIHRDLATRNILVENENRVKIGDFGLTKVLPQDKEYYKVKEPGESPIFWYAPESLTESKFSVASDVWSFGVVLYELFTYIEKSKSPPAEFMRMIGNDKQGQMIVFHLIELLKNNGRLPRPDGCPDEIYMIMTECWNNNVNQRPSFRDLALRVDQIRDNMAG
Sequence of Tyrosine-protein kinase CSK (Homo sapiens) (P41240 2-450 limits assumed): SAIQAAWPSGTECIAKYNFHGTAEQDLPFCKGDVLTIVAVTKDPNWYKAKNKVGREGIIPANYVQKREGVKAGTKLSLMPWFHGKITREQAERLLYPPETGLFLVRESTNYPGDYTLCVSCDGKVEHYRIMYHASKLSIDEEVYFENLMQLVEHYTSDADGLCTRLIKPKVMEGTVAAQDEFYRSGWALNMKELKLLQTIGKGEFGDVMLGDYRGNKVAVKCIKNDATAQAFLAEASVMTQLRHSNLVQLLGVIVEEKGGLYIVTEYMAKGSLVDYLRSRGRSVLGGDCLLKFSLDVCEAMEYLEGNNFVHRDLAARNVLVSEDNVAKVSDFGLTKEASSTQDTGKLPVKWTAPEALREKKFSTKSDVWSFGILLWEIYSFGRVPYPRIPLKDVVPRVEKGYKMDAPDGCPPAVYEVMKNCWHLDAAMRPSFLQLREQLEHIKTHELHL
Sequence of Serine/threonine-protein kinase 25 (Homo sapiens) (O00506 whole entry, looked up): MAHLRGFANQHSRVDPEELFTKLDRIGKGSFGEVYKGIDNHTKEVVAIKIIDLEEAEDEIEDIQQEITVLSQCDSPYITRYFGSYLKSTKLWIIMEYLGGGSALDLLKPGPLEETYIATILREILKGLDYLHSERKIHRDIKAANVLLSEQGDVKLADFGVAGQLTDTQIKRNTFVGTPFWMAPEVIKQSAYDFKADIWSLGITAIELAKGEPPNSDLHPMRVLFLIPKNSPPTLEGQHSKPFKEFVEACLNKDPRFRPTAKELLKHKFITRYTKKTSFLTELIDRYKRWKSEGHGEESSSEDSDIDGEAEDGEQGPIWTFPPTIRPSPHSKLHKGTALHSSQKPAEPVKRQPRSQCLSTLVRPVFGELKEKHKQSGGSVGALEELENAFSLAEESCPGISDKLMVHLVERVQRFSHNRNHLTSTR
Sequence of Serine/threonine-protein kinase 26 (Homo sapiens) (Q9P289 2-416 limits assumed): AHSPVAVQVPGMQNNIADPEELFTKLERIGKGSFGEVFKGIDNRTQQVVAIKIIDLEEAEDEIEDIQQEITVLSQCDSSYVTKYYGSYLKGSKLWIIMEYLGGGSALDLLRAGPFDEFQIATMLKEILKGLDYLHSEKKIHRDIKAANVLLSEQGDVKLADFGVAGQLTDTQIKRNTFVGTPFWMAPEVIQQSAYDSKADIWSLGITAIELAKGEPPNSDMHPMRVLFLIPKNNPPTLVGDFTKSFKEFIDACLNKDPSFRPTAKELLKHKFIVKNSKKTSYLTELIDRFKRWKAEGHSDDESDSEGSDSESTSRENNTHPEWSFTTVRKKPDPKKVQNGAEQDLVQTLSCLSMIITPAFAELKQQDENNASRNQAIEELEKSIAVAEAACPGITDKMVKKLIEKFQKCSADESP

In general, IC50 refers to the concentration that inhibits the measured activity by half. In the case of `Oc1cccc(-c2nc(N3CCOCC3)c3cnn(C4CCNCC4)c3n2)c1`, the IC50 in data set [1] was found to be 215 nM. In other words, the sub-micromolar range.
Same read-out and setting: for `c1ccc(CN2CCC(n3ncc4c(N5CCOCC5)nc(-c5cccc6cc[nH]c56)nc43)CC2)cc1` the value was 380 nM; for `Oc1ccc(-c2nc(N3CCOCC3)c3cnn(C4CCN(Cc5ccccc5)CC4)c3n2)cc1`, 170 nM.
As to `O=C(c1cccnc1)N1CCC(n2ncc3c(N4CCOCC4)nc(-c4cccc(O)c4)nc32)CC1`, the fold change (FC) in [2] was over 10. Moreover, the half-maximal inhibitory concentration (IC50) is 6 nM in data set [1] and 86 nM in data set [3].
As to `O=C(c1cccnc1)N1CCC(n2ncc3c(N4CCOCC4)nc(-c4ccc5[nH]ccc5c4)nc32)CC1`, the half-inhibitory concentration (IC50) amounted to 4 nM in data set [1] and 5870 nM in data set [3].
As for `c1ccc(CN2CCC(n3ncc4c(N5CCOCC5)nc(-c5cccc6[nH]ccc56)nc43)CC2)cc1`, half-maximal inhibition in data set [1] (IC50) required 145 nM.
Same read-out and setting: for `c1cc2cc(-c3nc(N4CCOCC4)c4cnn(C5CCNCC5)c4n3)ccc2[nH]1` the value was 170 nM.
With `Oc1ccccc1-c1nc(N2CCOCC2)c2cnn(C3CCN(Cc4ccccc4)CC3)c2n1`, in data set [1], the IC50 turned out to be 1260 nM. This IC50 lies about 7.4-fold higher than the previous one.
In data set [1], `c1ccc(CN2CCC(n3ncc4c(N5CCOCC5)nc(-c5cc6ccccc6[nH]5)nc43)CC2)cc1` gave an IC50 of 130 nM.
For `CO[C@H]1C[C@@H]2CC[C@@H](C)[C@@](O)(O2)C(=O)C(=O)N2CCCC[C@H]2C(=O)O[C@H]([C@H](C)C[C@@H]2CC[C@@H](O)[C@H](OC)C2)CC(=O)[C@H](C)/C=C(\C)[C@@H](O)[C@@H](OC)C(=O)[C@H](C)C[C@H](C)/C=C/C=C/C=C/1C`, the outcome in data set [4] and in data set [5] was Active. Further, the outcome in data set [6] and in data set [7] was inactive.
For the molecule `c1ccc(CN2CCC(n3ncc4c(N5CCOCC5)nc(-c5cccnc5)nc43)CC2)cc1`, in data set [1], half-maximal inhibition (IC50) was put at 695 nM.
Same read-out and setting: for `c1ccc(CN2CCC(n3ncc4c(N5CCOCC5)nc(-c5ccc6[nH]ccc6c5)nc43)CC2)cc1` the value was 88 nM.
As for `O=C(c1ccccc1)N1CCC(n2ncc3c(N4CCOCC4)nc(-c4cccc(O)c4)nc32)CC1`, the IC50 in data set [1] was 4 nM; in [3], 50 nM.
One may read the inhibition as the percentage by which the read-out fell short of the control. Higher therefore signals strong suppression. With `c1cncc(CN2CCC(n3ncc4c(N5CCOCC5)nc(-c5ccc6[nH]ccc6c5)nc43)CC2)c1`, the Activity entry in [4], in data set [5], in [6], in data set [8] and in data set [7] was “Dose-dependent effect” throughout. The outcome in [9], in data set [10] and in [25] was Active. Also, the result in data set [11] and in data set [12] was inactive. In addition, the inhibition in [13], in data set [14], in [15], in data set [16], in data set [17] and in [18] was 50% throughout. Also, the inhibition in [19], in data set [20], in data set [21], in [22], in data set [23] and in data set [24] was 50% each time. Also, in [26], the inhibition is 50%. The molecule further registered an IC50 in [1] of 9 nM.
Turning to `O=c1[nH]c2ccc(-c3nc(N4CCOCC4)c4cnn(C5CCN(Cc6ccccc6)CC5)c4n3)cc2[nH]1`, in data set [2], the fold change (FC) was over 20. The molecule further displayed a half-maximal inhibitory concentration (IC50) in [1] of 190 nM.
The molecule `CC(=O)N1CCC(n2ncc3c(N4CCOCC4)nc(-c4cccc(O)c4)nc32)CC1` gave an IC50 in data set [1] of 49 nM.
Still for that read-out and setting: for `c1ccc(CN2CCC(n3ncc4c(N5CCOCC5)nc(-c5ccncc5)nc43)CC2)cc1` the value was 7300 nM.
Broadly, the half-life is how long it takes for the measured level to halve. As for `Oc1cccc(-c2nc(N3CCOCC3)c3cnn(C4CCN(Cc5ccccc5)CC4)c3n2)c1`, the half-life in data set [27] was determined as 13 min. In data set [2], this molecule returned a fold change (FC) of over 10. The molecule further had an IC50 in [1] of 78 nM.
For `c1ccc(CN2CCC(n3ncc4c(N5CCOCC5)nc(-c5ccc6ncccc6c5)nc43)CC2)cc1`, the midpoint of inhibition in data set [1], the IC50, lay at 5950 nM.
The same measure, in the same setting: for `c1ccc(CN2CCC(n3ncc4c(N5CCOCC5)nc(-c5cnc6ccccc6c5)nc43)CC2)cc1` the value was 120 nM.
Same read-out and setting: for `c1ccc(CN2CCC(n3ncc4c(N5CCOCC5)nc(-c5ccc6cc[nH]c6c5)nc43)CC2)cc1` the value was 230 nM; for `Oc1cccc(-c2nc(N3CCOCC3)c3cnn(C4CCN(Cc5cccnc5)CC4)c3n2)c1`, 10 nM.
